Assay results from patent US20240016943A1, “SYNTHETIC DNA BINDING DOMAINS AND USES THEREOF” (The University of Chicago, priority 2020, published 2024).
Starred links: 1 amine or outer side, 2 acyl side, 3 side chain; linkers in the order of their positions; H or OH if unused. Positions of bridges follow the written chain, without caps; N, C: chain ends. Non-standard residues stand in square brackets, D forms with d. Chains are numbered I, II in the order given. X1 = O=C1CC([*:2])C(=O)N1CC(=O)[*:1]; S5 = C=CCCC[C@](C)(N)C(=O)O; Nle = CCCC[C@H](N)C(=O)O; Aib = CC(C)(N)C(=O)O

How the values were obtained:
[1] = tested on: duplex DNA probes E1, E2, and E3; assay: DNA probe specificity EMSA; type: binding; conditions: STR69 1 μM, STR640 125 nM; for DNA motif specificity: B-Z 100 nM, probes E1, E2, E3
Procedure: (§1) For direct DNA binding experiments, STRs were serial diluted (3-fold increments) at 2× concentration in 20 μL of 1× binding buffer (20 mM HEPES pH 8.0, 150 mM NaCl, 5% glycerol, 1 mM EDTA, 2 mM MgCl2, 0.5 mg/mL BSA, 1 mM DTT, 0.05% NP-40). 20 μL of 10 nM IRD700-labeled E-box probe in 1× binding buffer was added and samples were incubated for 30 min at RT followed by 15 min at 4° C. 3.5 μL of each reaction was loaded on a 6% acrylamide, 0.5× TBE gel equilibrated to 4° C. Higher affinity compounds (e.g., STR116 and STR118) were run at 10-fold lower concentration of compound and 0.5 nM final concentration of IRD-labeled oligo. Electrophoresis was carried out for 60 min at 110 V and 4° C. with 0.5× TBE+1 mM MgCl2 running buffer. Gels were pre-run at 110 V for 60 min prior to sample loading. For specificity experiments, 25 nM STR116, 10 nM STR118, or 5 nM MAX, and 5 nM labeled E-box probe were incubated with 0, 5, 25, 125, or 625 nM unlabeled competitor oligo for 30 min at RT in binding buffer. For protein competition experiments, 1 nM TRD-Ebox oligo was added to a mixture of STR (0-1 mM) and 30 nM protein (MAX or MYC:MAX) and incubated for 30 minutes at room temperature in binding buffer. For DNA probe specificity experiments B-Z (100 nM), STR69 (1 μM), and STR640 (125 nM) and MAX (10 nM) were incubated with 1 nM IRD-labeled oligo and 0.01 mg/ml salmon sperm DNA for 30 minutes at RT in binding buffer. All samples were equilibrated to 4° C. for 15 minutes before loading onto 6% gel. Gels were imaged using an Odyssey Li-COR. ImageJ was used to quantify band intensity and fraction bound DNA was calculated by dividing band intensity of bound DNA by the band intensity of the free DNA from a vehicle treated lane. A four-parameter dose-response curve fit to a plot of normalized fraction bound DNA vs. log B-Z concentration yields an IC50 which was reported as the apparent KD.

E-box DNA = type: binding
Procedure: as §1, with “For DNA probe specificity experiments B-Z (100 nM), STR69 (1 μM), and STR640 (125 nM) and MAX (10 nM) were incubated with 1 nM IRD-labeled oligo and 0.01 mg/ml salmon sperm DNA for 30 minutes at RT in binding buffer. All samples were equilibrated to 4° C. for 15 minutes before loading onto 6% gel. Gels were imaged using an Odyssey Li-COR.” left out, “A four-parameter dose-response curve fit to a plot of normalized fraction bound DNA vs. log B-Z concentration yields an IC50 which was reported as the apparent KD.” left out

Trypsin = target: T1, Trypsin (Sus scrofa, UniProt P00761); assay: In vitro trypsin stability assay; type: in vitro ADME
T1 construct: purchased Thermo-Pierce
Procedure: Each STR, 30 μM, was dissolved in 330 μL of 20 mM phosphate buffer pH 7.4 in a microcentrifuge tube and heated to 37° C. on a tabletop shaker (500 rpm). 30 μL of the reaction mixture was added to 60 uL of quenching solution (ACN+3% formic acid with 500 nM fmoc-lysine-OH internal standard) for 0 s timepoint sample. Thermo-Pierce MS-Grade Trypsin was added to a final concentration of 0.5 μg/ml and additional 30 μL aliquots were quenched at indicated timepoints. Quenched samples were cooled to 4° C. and centrifuged at 20,000×G for 3 min. […] Intact STR was calculated by normalizing the background subtracted integrated area under the curve for the EIC of (M+4H)/4, ±0.5 mass units, where M is mass and H is hydrogen ion, to the integrated area under the curve for the A280 peak of the internal standard. Fraction intact STR was calculated by dividing the intact STR by the normalized STR signal in the initial 0 s sample. GraphPad Prism was used to plot fraction intact STR vs time, and the proteolytic half-life was derived using a non-linear one-phase decay with the plateau constant set equal to zero.

[2] = Solubility in RPMI media+10% FBS; type: physicochemical; conditions: RPMI media with 10% FBS, read-out: soluble concentration
[3] = Circular dichroism spectroscopy; type: physicochemical; conditions: 25-85° C.
Procedure: Lyophilized STR samples were resuspended in 20 mM phosphate buffer pH 7.4 and diluted to 10 μM. Circular dichroism spectra were obtained on a Jasco J-170 using a 0.1 cm quartz cuvette with the following settings: wavelength, 260-180 nm; data pitch, 1.0 nm; scan rate, 50 nm min^−1; accumulations, 3; temperature, 25-85° C. with 6° C. increments. Means-Movement smoothing at the lowest setting was applied to the recorded data.

E-box probe = assay: Conditioned media binding assay (retained E-box binding by EMSA); type: in vitro ADME; conditions: HeLa conditioned media, 37° C.
Procedure: HeLa cells were grown to 90% confluency in a 6 cm plate and the media was collected. 10 μM STR was resuspended in 0.5 mL of the conditioned media and incubated with gentle shaking at 37° C. At 0, 24 and 48 hrs., treatment media (2 μL) was diluted into 48 μL of 1× EMSA binding buffer containing 5 nM E-box probe. DNA binding was measured using an electrophoretic mobility shift assay. Fraction bound to E-box probe was calculated by dividing the band intensity of bound DNA by the sum of the bound DNA+free DNA.

[4] = tested on: E-box oligonucleotide probe; assay: DNA competition (specificity) EMSA with unlabeled competitor oligo; type: binding; conditions: 25 nM STR116, 10 nM STR118, or 5 nM MAX; 0-625 nM competitor
Procedure: as §1

T1 sequence (P00761 9-231): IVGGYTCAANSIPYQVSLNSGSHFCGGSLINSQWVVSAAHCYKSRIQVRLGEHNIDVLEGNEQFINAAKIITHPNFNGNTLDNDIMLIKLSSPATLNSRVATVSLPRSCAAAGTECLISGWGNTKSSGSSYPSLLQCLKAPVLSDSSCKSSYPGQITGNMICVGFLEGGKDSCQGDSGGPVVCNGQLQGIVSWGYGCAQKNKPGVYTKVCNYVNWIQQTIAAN

Ac-LRLKINSRERKRMHDLNIAMDK(ButMal)LREVMP-NH2 + Ac-SKIATLCLARNYILMLTNSL-NH2 (chain 1 XRLKINSRERKRMHDLNIAMDXLREVMX; chain 2 XKIATLCLARNYILMLTNSX; not fully specified; ButMal ligation; N-acetyl; C-terminal amides; (1)..(1) Xaa is acetyl-L; (22)..(22) Xaa is K(ButMal) (butyrlmaleimide-lysine); (28)..(28) Xaa is P-NH2; (1)..(1) Xaa is acetyl-S; (20)..(20) Xaa is L-NH2) [STR69]
DNA motif specificity [1]: show specificity for the OLIG2- and TFAP4-preferred motifs (target sequences in E3 and E2, respectively)
binding to the E-box motif [1]: minimal binding

Ac-RREIANSNERRRMQSINAGFQK(GlyMal)LKTLIP-NH2 + Ac-SKAAILCQTAEYIFRLRRKIHTLE-NH2 (chain 1 XREIANSNERRRMQSINAGFQXLKTLIX; chain 2 XKAAILCQTAEYIFRLRRKIHTLX; GlyMal ligation; N-acetyl; C-terminal amides; (1)..(1) Xaa is acetyl-R; (22)..(22) Xaa is K(GlyMal) (glycylmaleimide-lysine); (28)..(28) Xaa is P-NH2; (1)..(1) Xaa is acetyl-S; (24)..(24) Xaa is E-NH2) [STR640]
DNA motif specificity [1]: show specificity for the OLIG2- and TFAP4-preferred motifs (target sequences in E3 and E2, respectively)
binding to the E-box motif [1]: minimal binding

I: Ac-KRAHHNALERKRRDHIKDSFHKLRDSVP-NH2 / II: Ac-SRAQILCKATEYIQY[Nle]RRKN-NH2 (linker I:22-II:7 via X1) [B-Z]
EMSA Fraction bound (sDBD = 500 nM) (E-box DNA): 100%
trypsin proteolysis (in words) (Trypsin; LC-MS): rapidly proteolyzed at several positions

I: Ac-PRFQSA[S5]DKR[S5]HHNALERKRRDHIKDSFHKLRDSVP-NH2 / II: Ac-SRAQILCKATEYIQRLR[S5]KIR[S5]LE-NH2 (staple I:7-I:11, II:18-II:22; linker I:30-II:7 via X1) [B11-Z80]
solubility [2]: > 75 µM

I: Ac-PRFQSA[S5]DKR[S5]HHNALERKRRDHIKDSFHKLRDSVP-NH2 / II: Ac-SRAQILCKATEYIQYLR[S5]KIH[S5]LE-NH2 (staple I:7-I:11, II:18-II:22; linker I:30-II:7 via X1) [STR118, Ac-PRFQSA(S5)DKR(S5)HHNALERKRRDHIKDSFHK(GlyMal)LRDSVP-NH2 + Ac-SRAQILCKATEYIQYLR(S5)KIH(S5)LE-NH2]
thermal stability by temperature-dependent CD [3]: highly thermally stable, with retention of helicity even at 85 °C
stability in conditioned media (in words) (E-box probe): increased stability in conditioned media

I: Ac-PRFQSA[S5]DKR[S5]HHNALERKRRDHIKDSFHKLRDSVP-NH2 / II: Ac-SR[Aib]QILCQATEYIQSLRR[S5]IHT[S5]E-NH2 (staple I:7-I:11, II:19-II:23; linker I:30-II:7 via X1) [B11-Z70]
solubility [2]: > 75 µM

I: Ac-PRFQSA[S5]DKR[S5]HHNALERKRRDHIKDSFHKLRDSVP-NH2 / II: Ac-SR[Aib]QILCQATEYIQ[S5][Nle]RR[S5]LHTHE-NH2 (staple I:7-I:11, II:15-II:19; linker I:30-II:7 via X1) [STR116, Ac-PRFQSA(S5)DKR(S5)HHNALERKRRDHIKDSFHK(GlyMal)LRDSVP-NH2 + Ac-SR(Aib)QILCQATEYIQ(S5)(Nle)RR(S5)LHTHE-NH2]
stability in conditioned media (in words) (E-box probe): increased stability in conditioned media

MAX: Human MAX (residues 22-102) protein expressed with N-terminal hexahistidine tag, used in homodimeric form
competition by DNA in which the E-box had been replaced entirely [4]: no competition
competition by DNA with mutation of the two central E-box nucleotides (CG to TA) [4]: some competition
competition of E-box probe binding by excess unlabeled E-box oligonucleotide [4]: effectively competed
half-life in trypsin stability assay (Trypsin; 0.5 μg/ml trypsin, 37° C.): 20 s
